For one test, the target named is T1, UBC13-UEV1 (Homo sapiens, UniProt P61088).
T1 construct: GST (N); made in house; host or cells: Escherichia coli BL21
T1 sequence (P61088 1-152): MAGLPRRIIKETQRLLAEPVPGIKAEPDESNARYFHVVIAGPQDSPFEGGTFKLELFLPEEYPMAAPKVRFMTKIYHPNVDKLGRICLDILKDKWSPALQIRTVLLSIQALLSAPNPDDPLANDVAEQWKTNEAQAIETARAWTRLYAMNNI
Put plainly: In vitro free polyubiquitin chain formation assay. It counts as biochemical. How it is done:
As described in the Background, K63 type polyubiquitylation catalyzed by UBC13-UEV1 requires the interaction between both subunits of the heterodimer. […] In this assay, the formation of polyubiquitin chains in reactions containing 0.1 μM of E1 enzyme (Boston Biochem), 0.2 μM of UBC13, 0.2 μM of UEV1 (produced as described in Example 4), 117 μM of wild-type ubiquitin (Biomol UW8795) or mutated in all the lysines except the lysine in position 63 (ubiquitin K63) or in position 48 (ubiquitin K48; Boston Biochem), is allowed in a reaction buffer with 50 mM of Tris-HC at pH 7.6, 5 mM of MgCl2 and 0.5 mM of dithiothreitol. For the treatments with compound Ia (Varubin), UBC13 was pre-incubated for 10 minutes at room temperature with 100 μM of the compound before being added to the reaction. The reaction was initiated by means of adding 2 mM of ATP, and it was performed by means of incubating at 37° C. at different times, being stopped by means of adding Laemmli buffer (250 mM Tris-HCl, 10% SDS, 500 mM DTT, 0.5% bromophenol blue and 50% glycerol at pH 6.8) and boiling for 3 minutes. The samples were separated electrophoretically in polyacrylamide-SDS gels and transferred electrophoretically to PVDF membranes.

The subject of test [1] is S. cerevisiae Δrev3 mutants. Put plainly: Survival of S. cerevisiae Δrev3 mutants after ultraviolet radiation or MMS. It counts as cell-based, Saccharomyces cerevisiae. Particulars: 100 μM; UV or 0.03% MMS. The protocol:
To determine if compounds Ia and Ib inhibit the function of Ubc13p-Mms2p, their capacity to mimic in S. cerevisiae the DNA repair phenotypes generated by the null mutation of ubc13 was evaluated. Thus, mutant strains in RAD6 or REV3 and the parent strain thereof (control) were used in viability assays after the exposure to ultraviolet radiation or MMS. The genotypes of the strains used are the following:
3) Strain Δrev3: MAT at his3Δ1 leu2Δ0 lys2Δ0 ura3Δ0 rev3::kanMX4
Cells were inoculated in liquid cultures with YPD medium overnight at 30° C., until reaching the log phase of growth. For the treatments with ultraviolet radiation, aliquots of cells, grown in the presence or absence of 100 μM of compounds Ia or Ib were irradiated in a Stratalinker instrument (Stratagene) at the energies indicated in FIGS. 7 and 8. For the treatment with the mutagenic agent MMS, aliquots of cells grown or not in medium with 100 μM of compounds Ia or Ib were incubated, 0.03% MMS being added, with subsequent incubation for the times indicated in FIGS. 7 and 8. After either treatment, 500 cells were seeded in plates with YPD medium, counting the colonies after 2 days.

Another test relates to PC-3.Sluc cells tumors. Put plainly: PC-3.Sluc tumor xenografts in Balb/c nu/nu mice, light emission (RLUs). It counts as in vivo. The protocol:
For the purpose of determining if Varubin has an in vivo antitumor activity, its effects in mice having tumors formed from PC-3 cells were analyzed. The experimental tumors were formed by means of the intramuscular inoculation of PC-3.Sluc cells. The latter are PC-3 prostate cells in which they have been integrated by means of transfecting plasmid pRC/CMV-luc, which expresses the firefly (Photinus pyralis) luciferase gene in mammalian cells q. The incubation of the PC-3.luc cells with D-luciferin, a luciferase substrate, produces light, which can be quantified in an absolute manner (number of photons) either by means of a luminometer or by means of detection with a CCD (charge-coupled device) camera. The latter process further allows representing in real time images of the location of the tumor cells in the inoculated animals, as well as the tumor size, since the intensity of the light (number of photons) emitted in the presence of luciferin is directly proportional to the number of PC-3.luc cells.
For these studies, 24 male Balb/c nu/nu mice (Charles River Laboratories) of an age of 6 weeks were used. These animals were kept in a pathogen-free environment at all times, having been kept in the animal housing facility for 1 week after they were received, before the experimental handling. After being anesthetized by means of an intraperitoneal (i.p.) injection of a mixture at equal parts of 6 mg/Kg of droperidol (Roche, Basel, Switzerland) and 12 mg/Kg of midazolam (Rovi S.A, Madrid, Spain), intramuscular (i.m.) injections were performed both in the right leg and in the left leg of each animal of 1×10^6 PC-3.Sluc cells, suspended in 100 μL of fetal bovine serum-free culture medium. The development of tumors in the inoculation sites was allowed for 2 weeks, after which a first measurement of photons emitted was made and a first capture of images with an ORCA-2BT Imaging System instrument (Hammamatsu Photonics) provided with a C4742-98-LWG-MOD model CCD camera (cooled at −80° C.) was done at a resolution of 512×512 pixels. […] Four minutes later, photons were detected and quantified for 5 minutes in the instrument described above. […] The quantification and the analysis of photons were performed with the aid of the image analysis program WASABI (Hamamatsu Photonics). […] For the graphic representations, the quantitative data (RLUs) were standardized, for each tumor, in relation to the RLUs of day 0 of treatment.
The 24 mice, having luminescent tumors in both legs, were included in 4 experimental groups: (1) Control group, in which an intravenous (i.v.) injection of 100 μL of phosphate buffered saline pH 7.4 (PBS) and 50 μL of intratumoral (i.t.) PBS was performed. […] The light emission of the tumors was analyzed throughout 56 days from the start of the treatment.

Structures are written as SMILES.

Take `NC(=O)CN(CCc1ccccn1)C(=O)C1CC(=O)N(CCc2ccc(F)cc2)CC(=O)N1CCc1ccc(F)cc1` (stereo not shown) [Ia, N-aminocarbamoylmethyl-N-(2′-(2″pyridyl)ethyl)-1,4-bis[2′-(4″-fluorophenyl)ethyl]-3,7-dioxo-[1,4]diazepane-5-carboxamide]: on UBC13-UEV1 (100 μM, slopes of the curves), the “type of inhibition of the enzymatic activity of UBC13-UEV1” value is on record as “competitive type”. On UBC13-UEV1 (100 μM, ubiquitin K63), the “inhibition of polyubiquitylation with ubiquitin K63 as substrate” value is “efficiency similar to when the substrate is wild-type ubiquitin”. For the same molecule, the “rate of generation of polyubiquitylated forms” value on UBC13-UEV1 (UBC13 pre-incubated with 100 μM, wild-type ubiquitin) is on record as “lower rate of generation of polyubiquitylated forms”. For the same molecule, in test [1], the “sensitization of Δrev3 cells to UV radiation or exposure to MMS” value is given as “caused a higher sensitization of the cells”. For the same molecule, the “antitumor activity in tumors transplanted in nu/nu mice” value in the test on PC-3.Sluc cells tumors (100 μM, intramuscular injection) is reported as “shows antitumor activity”. Besides, the “tumor growth (RLUs)” value in the test on PC-3.Sluc cells tumors (Varubin alone, 100 μM in 50 μL of PBS, i.t./i.m., twice a week, 56 days) was “very limited growth”. Also, the “tumor growth (RLUs), combined treatment” value in the test with PC-3.Sluc cells tumors (doxorubicin i.v. 5 mg/Kg once a week plus Varubin 100 μM twice a week, 56 days) is recorded as “did not grow significantly”.
